Test results as given in US7329650B2, “Peptides and peptide analogues designed from HFE protein and their uses in the treatment of iron overload diseases” (Bio-Rad Laboratories, Inc., priority 1998, dated 2008).
Ends that are not written are not given here.

Biological target: T1, transferrin receptor (TfR) (Homo sapiens, UniProt P02786)
T1 construct: HeLa cells were grown to 80-90% confluence at 37° C. at 5% CO2; endogenous in cells; host or cells: HeLa cells
Assay: Measurement of cell-associated transferrin (labeled transferrin binding to HeLa cells, Scatchard analysis)
Conditions: for effect on TfR affinity for transferrin (in words): HeLa cells, peptide 50 μM or soluble HFE/β2m 100 nM alone

T1 sequence (P02786 whole entry): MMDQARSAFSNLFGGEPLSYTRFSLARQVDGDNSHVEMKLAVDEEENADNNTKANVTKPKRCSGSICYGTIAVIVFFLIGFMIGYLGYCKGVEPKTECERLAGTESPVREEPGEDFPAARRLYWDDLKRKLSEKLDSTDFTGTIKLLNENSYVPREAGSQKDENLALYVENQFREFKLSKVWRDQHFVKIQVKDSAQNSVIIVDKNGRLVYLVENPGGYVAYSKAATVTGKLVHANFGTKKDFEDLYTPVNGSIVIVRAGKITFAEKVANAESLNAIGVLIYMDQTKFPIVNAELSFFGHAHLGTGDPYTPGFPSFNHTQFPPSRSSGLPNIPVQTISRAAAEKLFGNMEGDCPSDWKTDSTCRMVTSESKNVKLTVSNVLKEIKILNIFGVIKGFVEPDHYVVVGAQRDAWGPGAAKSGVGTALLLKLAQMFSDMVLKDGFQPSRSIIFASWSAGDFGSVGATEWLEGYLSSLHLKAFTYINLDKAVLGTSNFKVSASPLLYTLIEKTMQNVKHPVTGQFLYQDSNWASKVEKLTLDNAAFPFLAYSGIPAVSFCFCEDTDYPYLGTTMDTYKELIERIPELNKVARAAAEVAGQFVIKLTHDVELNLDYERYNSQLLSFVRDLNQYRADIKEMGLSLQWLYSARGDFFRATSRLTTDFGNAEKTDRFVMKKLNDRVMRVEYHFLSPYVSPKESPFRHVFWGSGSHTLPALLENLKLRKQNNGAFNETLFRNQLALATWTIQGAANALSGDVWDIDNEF

Sequence	effect on TfR affinity for transferrin (in words) (FIG. 2 experiment)	effect on TfR affinity for transferrin (in words) (FIG. 3 experiment)	increase of KD of TfR for transferrin versus HeLa cells alone (FIG. 1 experiment, peptide 50 μM or soluble HFE/β2m 100 nM)
GWDHMFTVDFATIMENH [G-(17)-H (Ala)]	little effect	little effect	–
GWDHMFTVDFWTIMENH [G-(17)-H (Trp)]	–	significant increase in KD	approximately 2 fold
